This note sets out measurements from patent USRE46630E1, “Substituted 4-pyridones and their use as inhibitors of neutrophil elastase activity” (Boehringer Ingelheim International GmbH, priority 2012, dated 2017).

The assay concerns the target T1, Human neutrophil elastase (Homo sapiens, UniProt P08246).
T1 construct: purchased Calbiochem 324681
T1 sequence (P08246 30-267): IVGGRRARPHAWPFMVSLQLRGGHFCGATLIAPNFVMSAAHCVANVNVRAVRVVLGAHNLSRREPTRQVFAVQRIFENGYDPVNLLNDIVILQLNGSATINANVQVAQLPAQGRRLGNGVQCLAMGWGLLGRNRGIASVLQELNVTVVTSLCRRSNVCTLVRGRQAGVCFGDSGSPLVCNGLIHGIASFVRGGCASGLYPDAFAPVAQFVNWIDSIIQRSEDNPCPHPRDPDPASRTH
In words: Human Neutrophil Elastase Assay. It is filed as biochemical. The conditions noted are these: for IC50: Neutrophil Elastase assay, substrate MeOSuc-Ala-Ala-Pro-Val-AMC 250 μM, 15 min preincubation, 60 min incubation at room temperature, pH 7.5. On the procedure: Human Neutrophil Elastase Assay
All other materials were of the highest grade commercially available.
The following buffers were used: Compound buffer: 100 mM Tris, 500 mM NaCl, adjusted to pH 7.5; Assay buffer: 100 mM Tris, 500 mM NaCl, adjusted to pH 7.5, containing 0.01% BSA.
Assay conditions: Test compounds were prediluted in DMSO and subsequently in compound buffer (5% DMSO final). […] After inactivation of the enzyme, fluorescence intensities were measured at 380 nm excitation and 460 nm emission wavelengths.
Each plate contains wells with a high value control (DMSO+enzyme+substrate) and wells with a low value control (DMSO+inactivated enzyme+substrate). […] Means of low values were taken as 0%, means of high values as 100%.

Structures are written as SMILES.

`Cc1noc(CNC(=O)c2cn(Cc3ccc(C#N)cc3)c(C)c(-c3cccc(C(F)(F)F)c3)c2=O)n1` [Example 1.67] displayed an IC50 of 6.5 nM. Turning to `Cc1c(-c2cccc(C(F)(F)F)c2)c(=O)c(C(=O)NCc2ccc(S(C)(=O)=O)cc2)cn1Cc1ccccc1` [Example 2.1, 1-Benzyl-6-methyl-4-oxo-5-(3-trifluoromethyl-phenyl)-1,4-dihydro-pyridine-3-carboxylic acid 4-methanesulfonyl-benzylamide], the concentration for half-maximal inhibition (IC50) turned out to be 55.3 nM. Compound `Cc1c(-c2cccc(C(F)(F)F)c2)c(=O)c(C(=O)NCc2ccc(S(C)(=O)=O)cc2)cn1Cc1ccc(F)cc1` [Example 2.2] gave an IC50 of 1.9 nM. Still for that read-out and setting: next, `Cc1c(-c2cccc(C(F)(F)F)c2)c(=O)c(C(=O)NCc2ccc(S(C)(=O)=O)cc2)cn1Cc1ccc(C#N)cn1` [Example 2.3]: under 1 nM; `Cc1c(-c2cccc(C(F)(F)F)c2)c(=O)c(C(=O)NCc2ccc(S(C)(=O)=O)cc2)cn1Cc1ccc(C#N)nc1` [Example 2.4]: 1.4 nM. Compound `Cc1c(-c2cccc(C(F)(F)F)c2)c(=O)c(C(=O)NCc2ccc(S(C)(=O)=O)cc2)cn1[C@H](C)c1ccc(C#N)cc1` [Example 2.5A] had an IC50 of under 1 nM. In addition, the “neutrophil elastase inhibitory potency, one enantiomer compared with the other” value (eutomer versus distomer of the racemic example) is given as “much more active”. As to `COc1cc(C#N)ccc1Cn1cc(C(=O)NCc2ccc(S(C)(=O)=O)cc2)c(=O)c(-c2cccc(C(F)(F)F)c2)c1C` [Example 2.6], the IC50 came out at 1.6 nM. For the compound `Cc1c(-c2cccc(C(F)(F)F)c2)c(=O)c(C(=O)NCc2ccc(S(C)(=O)=O)cc2)cn1Cc1ccc(Cl)cc1` [Example 2.7], it took 6.9 nM to reach half-maximal inhibition (IC50). The same measure, in the same setting: next, `Cc1c(-c2cccc(C(F)(F)F)c2)c(=O)c(C(=O)NCc2ccc(S(C)(=O)=O)cc2)cn1Cc1ccc(C#N)cc1F` [Example 2.8]: under 1 nM; `Cc1c(-c2cccc(C(F)(F)F)c2)c(=O)c(C(=O)NCc2ccc(S(C)(=O)=O)cc2)cn1Cc1ccc(C#N)c(F)c1` [Example 2.9]: under 1 nM. Same read-out and setting: to `Cc1c(-c2cccc(C(F)(F)F)c2)c(=O)c(C(=O)NCc2ccc(S(C)(=O)=O)cc2)cn1Cc1cccc(C#N)c1` [Example 2.10] belongs 83.8 nM. As to `Cc1c(-c2cccc(C(F)(F)F)c2)c(=O)c(C(=O)NCc2ccc(S(C)(=O)=O)cc2)cn1Cc1ccncc1` [Example 2.11], the IC50 worked out at 38.9 nM. Same read-out and setting: next, `Cc1c(-c2cccc(C(F)(F)F)c2)c(=O)c(C(=O)NCc2ccc(S(C)(=O)=O)cc2)cn1Cc1ccc(C#N)cc1` [Example 2.12]: under 1 nM; `CNC(=O)c1cn(Cc2ccc(C#N)nc2)c(C)c(-c2cccc(C(F)(F)F)c2)c1=O` [Example 3.2]: 53.7 nM; `CNC(=O)c1cn(Cc2ccc(F)cc2)c(C)c(-c2cccc(C(F)(F)F)c2)c1=O` [Example 3.3]: 51 nM. Compound `CNC(=O)c1cn(Cc2ccc(Cl)cc2)c(C)c(-c2cccc(C(F)(F)F)c2)c1=O` [Example 3.4] had an IC50 of 29.1 nM. Take `CNC(=O)c1cn(Cc2ccc(C#N)c(F)c2)c(C)c(-c2cccc(C(F)(F)F)c2)c1=O` [Example 3.5]: the 50% inhibitory concentration (IC50) worked out at 19.3 nM. In turn, `CNC(=O)c1cn(Cc2ccc(C#N)cc2F)c(C)c(-c2cccc(C(F)(F)F)c2)c1=O` [Example 3.6] had an IC50 of 20.3 nM. Take `CNC(=O)c1cn(Cc2ccc(C#N)cc2OC)c(C)c(-c2cccc(C(F)(F)F)c2)c1=O` [Example 3.7]: it took 26.4 nM to reach half-maximal inhibition (IC50). The same measure, in the same setting: next, `Cc1c(-c2cccc(C(F)(F)F)c2)c(=O)c(C(=O)NCc2ccc(S(C)(=O)=O)cn2)cn1Cc1ccc(C#N)cc1` [Example 4.1, 1-(4-cyano-benzyl)-6-methyl-4-oxo-5-(3-trifluoromethyl-phenyl)-1,4-dihydro-pyridine-3-carboxylic acid (5-methanesulfonyl-pyridin-2-ylmethyl)-amide]: under 1 nM; `Cc1c(-c2cccc(C(F)(F)F)c2)c(=O)c(C(=O)NCc2ccc(S(C)(=O)=O)cn2)cn1Cc1ccc(Cl)cc1` [Example 4.2]: 2.1 nM.
